In ChEMBL document CHEMBL5291721, “A preclinical secondary pharmacology resource illuminates target-adverse drug reaction associations of marketed drugs” (Nat Commun, 2023):

Key:
[1] = target: T1, Alpha-1A adrenergic receptor (Homo sapiens, UniProt P35348)
T1 sequence (P35348 whole entry): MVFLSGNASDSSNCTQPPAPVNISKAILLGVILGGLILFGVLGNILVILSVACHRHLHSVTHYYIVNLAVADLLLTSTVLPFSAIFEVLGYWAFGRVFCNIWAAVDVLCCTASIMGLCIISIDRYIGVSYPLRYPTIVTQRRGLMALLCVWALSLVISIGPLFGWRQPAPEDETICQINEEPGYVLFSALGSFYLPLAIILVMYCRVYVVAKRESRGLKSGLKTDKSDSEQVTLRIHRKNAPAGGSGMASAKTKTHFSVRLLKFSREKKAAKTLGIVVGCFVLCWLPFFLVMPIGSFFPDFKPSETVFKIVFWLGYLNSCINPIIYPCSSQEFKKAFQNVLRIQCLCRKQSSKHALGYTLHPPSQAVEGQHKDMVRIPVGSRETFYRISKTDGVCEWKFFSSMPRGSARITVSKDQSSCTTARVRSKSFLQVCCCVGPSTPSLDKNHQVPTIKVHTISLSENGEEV

[2] = target: T2, Type-1 angiotensin II receptor (Homo sapiens, UniProt P30556)
T2 sequence (P30556 whole entry): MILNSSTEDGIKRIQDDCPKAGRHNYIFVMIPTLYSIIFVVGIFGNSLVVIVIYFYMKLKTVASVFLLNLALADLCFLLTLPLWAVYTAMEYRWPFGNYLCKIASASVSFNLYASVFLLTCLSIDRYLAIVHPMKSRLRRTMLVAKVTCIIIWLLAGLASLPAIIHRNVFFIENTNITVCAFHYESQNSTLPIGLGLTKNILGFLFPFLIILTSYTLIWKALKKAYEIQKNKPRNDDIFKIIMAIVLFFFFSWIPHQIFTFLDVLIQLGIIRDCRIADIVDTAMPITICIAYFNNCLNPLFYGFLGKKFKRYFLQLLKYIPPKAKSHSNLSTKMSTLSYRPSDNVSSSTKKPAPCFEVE

[3] = target: Neuronal acetylcholine receptor subunit alpha-4 (Homo sapiens, UniProt P43681)
[4] = target: Glutamate receptor ionotropic, NMDA 1 (Rattus norvegicus, UniProt P35439)
[5] = target: T3, 5-hydroxytryptamine receptor 3A (Homo sapiens, UniProt P46098); format: functional
T3 sequence (P46098 whole entry): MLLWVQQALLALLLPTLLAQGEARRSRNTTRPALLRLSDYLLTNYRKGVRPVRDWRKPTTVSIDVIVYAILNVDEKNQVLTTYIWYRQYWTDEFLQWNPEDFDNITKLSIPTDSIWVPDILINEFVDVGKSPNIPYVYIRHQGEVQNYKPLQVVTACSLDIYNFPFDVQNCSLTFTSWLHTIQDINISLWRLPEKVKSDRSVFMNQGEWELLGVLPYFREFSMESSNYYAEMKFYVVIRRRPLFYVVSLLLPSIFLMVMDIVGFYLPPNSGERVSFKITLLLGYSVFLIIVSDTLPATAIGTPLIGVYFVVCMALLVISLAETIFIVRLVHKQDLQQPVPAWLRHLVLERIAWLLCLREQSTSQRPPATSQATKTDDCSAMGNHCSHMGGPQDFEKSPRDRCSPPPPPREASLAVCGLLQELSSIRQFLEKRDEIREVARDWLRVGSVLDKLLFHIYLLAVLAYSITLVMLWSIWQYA

Progesterone receptor = target: T4, Progesterone receptor (Homo sapiens, UniProt P06401)
T4 sequence (P06401 whole entry): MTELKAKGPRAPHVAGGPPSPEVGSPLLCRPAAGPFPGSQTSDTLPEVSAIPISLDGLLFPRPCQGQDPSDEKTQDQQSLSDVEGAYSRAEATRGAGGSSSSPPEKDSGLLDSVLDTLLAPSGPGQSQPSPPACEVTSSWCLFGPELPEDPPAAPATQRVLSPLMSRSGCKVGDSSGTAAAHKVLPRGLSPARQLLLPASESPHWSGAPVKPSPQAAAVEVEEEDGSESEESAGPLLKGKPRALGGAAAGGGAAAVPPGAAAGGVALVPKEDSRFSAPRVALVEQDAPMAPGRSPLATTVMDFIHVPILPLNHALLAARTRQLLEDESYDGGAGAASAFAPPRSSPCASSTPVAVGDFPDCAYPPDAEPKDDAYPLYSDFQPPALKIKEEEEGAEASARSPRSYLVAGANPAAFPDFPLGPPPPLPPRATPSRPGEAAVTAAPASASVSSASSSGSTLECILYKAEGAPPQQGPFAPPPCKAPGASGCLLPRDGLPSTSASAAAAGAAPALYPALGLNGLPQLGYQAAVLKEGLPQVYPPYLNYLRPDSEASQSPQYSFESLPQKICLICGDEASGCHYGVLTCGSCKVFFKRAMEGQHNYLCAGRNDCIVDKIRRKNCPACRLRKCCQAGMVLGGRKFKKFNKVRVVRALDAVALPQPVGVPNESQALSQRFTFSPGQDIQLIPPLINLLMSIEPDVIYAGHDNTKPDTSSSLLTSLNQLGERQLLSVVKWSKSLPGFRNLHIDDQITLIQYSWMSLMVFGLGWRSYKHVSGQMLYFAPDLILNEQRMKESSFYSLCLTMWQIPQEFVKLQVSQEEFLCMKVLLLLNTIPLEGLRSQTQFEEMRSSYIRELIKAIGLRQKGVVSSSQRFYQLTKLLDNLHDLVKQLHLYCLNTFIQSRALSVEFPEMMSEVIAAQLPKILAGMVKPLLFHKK

Cannabinoid receptor 1 = Cannabinoid receptor 1 (Homo sapiens, UniProt P21554); format: functional, cell-based
Histamine H2 receptor = Histamine H2 receptor (Homo sapiens, UniProt P25021); format: functional, cell-based
[6] = target: T5, 5-hydroxytryptamine receptor 1A (Homo sapiens, UniProt P08908); format: functional, cell-based
T5 sequence (P08908 whole entry): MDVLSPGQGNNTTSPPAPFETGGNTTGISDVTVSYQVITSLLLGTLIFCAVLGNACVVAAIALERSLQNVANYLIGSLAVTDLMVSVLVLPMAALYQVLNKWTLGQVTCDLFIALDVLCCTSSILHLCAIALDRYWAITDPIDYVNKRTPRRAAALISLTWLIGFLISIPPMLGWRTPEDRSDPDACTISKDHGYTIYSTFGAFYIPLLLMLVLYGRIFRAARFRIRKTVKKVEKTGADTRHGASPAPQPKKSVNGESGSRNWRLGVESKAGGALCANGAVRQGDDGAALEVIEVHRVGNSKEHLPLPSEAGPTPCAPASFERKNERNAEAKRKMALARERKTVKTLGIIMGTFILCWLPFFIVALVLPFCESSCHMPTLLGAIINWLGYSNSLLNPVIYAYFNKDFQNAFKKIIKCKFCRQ

[7] = target: 5-hydroxytryptamine receptor 2B (Homo sapiens, UniProt P41595); format: functional, cell-based
Further: assay procedure not described here.

Sequence of Neuronal acetylcholine receptor subunit alpha-4 (P43681 whole entry): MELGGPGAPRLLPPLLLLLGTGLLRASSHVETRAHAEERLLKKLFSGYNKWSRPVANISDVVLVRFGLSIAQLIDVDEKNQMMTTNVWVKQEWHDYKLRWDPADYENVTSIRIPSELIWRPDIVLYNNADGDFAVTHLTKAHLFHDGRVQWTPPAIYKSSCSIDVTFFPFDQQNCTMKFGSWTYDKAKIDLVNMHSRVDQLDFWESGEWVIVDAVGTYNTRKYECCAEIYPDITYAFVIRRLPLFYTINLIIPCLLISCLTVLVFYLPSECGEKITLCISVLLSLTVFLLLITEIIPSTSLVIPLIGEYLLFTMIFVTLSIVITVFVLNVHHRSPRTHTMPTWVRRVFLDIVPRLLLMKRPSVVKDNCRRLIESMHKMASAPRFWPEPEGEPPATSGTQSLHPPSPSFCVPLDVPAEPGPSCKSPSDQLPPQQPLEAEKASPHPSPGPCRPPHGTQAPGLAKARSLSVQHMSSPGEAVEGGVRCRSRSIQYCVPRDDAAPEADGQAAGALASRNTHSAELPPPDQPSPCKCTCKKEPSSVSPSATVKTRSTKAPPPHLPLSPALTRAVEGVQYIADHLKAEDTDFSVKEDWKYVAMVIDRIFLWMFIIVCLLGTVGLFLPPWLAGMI
Sequence of Cannabinoid receptor 1 (P21554 whole entry): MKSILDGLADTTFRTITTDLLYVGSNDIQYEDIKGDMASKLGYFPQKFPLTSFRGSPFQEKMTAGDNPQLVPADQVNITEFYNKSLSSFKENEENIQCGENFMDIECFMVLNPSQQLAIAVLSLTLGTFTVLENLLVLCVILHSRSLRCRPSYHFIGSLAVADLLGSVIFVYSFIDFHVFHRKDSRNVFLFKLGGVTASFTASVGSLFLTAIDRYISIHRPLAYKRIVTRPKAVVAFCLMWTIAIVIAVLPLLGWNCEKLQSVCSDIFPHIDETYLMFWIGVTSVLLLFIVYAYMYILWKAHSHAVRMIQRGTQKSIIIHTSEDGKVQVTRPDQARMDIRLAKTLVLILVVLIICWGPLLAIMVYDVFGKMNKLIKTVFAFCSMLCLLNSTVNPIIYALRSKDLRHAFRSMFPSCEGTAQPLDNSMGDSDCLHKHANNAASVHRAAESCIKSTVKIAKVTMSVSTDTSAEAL
Sequence of Histamine H2 receptor (P25021 whole entry): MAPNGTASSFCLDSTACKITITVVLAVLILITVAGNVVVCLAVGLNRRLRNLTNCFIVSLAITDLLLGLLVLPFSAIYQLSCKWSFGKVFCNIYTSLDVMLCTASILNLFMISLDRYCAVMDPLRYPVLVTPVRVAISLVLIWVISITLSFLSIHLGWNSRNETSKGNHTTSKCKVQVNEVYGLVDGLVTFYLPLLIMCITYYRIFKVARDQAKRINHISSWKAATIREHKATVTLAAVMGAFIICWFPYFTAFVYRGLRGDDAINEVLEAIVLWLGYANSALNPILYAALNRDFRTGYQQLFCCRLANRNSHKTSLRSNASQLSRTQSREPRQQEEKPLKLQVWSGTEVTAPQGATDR
Sequence of 5-hydroxytryptamine receptor 2B (P41595 whole entry): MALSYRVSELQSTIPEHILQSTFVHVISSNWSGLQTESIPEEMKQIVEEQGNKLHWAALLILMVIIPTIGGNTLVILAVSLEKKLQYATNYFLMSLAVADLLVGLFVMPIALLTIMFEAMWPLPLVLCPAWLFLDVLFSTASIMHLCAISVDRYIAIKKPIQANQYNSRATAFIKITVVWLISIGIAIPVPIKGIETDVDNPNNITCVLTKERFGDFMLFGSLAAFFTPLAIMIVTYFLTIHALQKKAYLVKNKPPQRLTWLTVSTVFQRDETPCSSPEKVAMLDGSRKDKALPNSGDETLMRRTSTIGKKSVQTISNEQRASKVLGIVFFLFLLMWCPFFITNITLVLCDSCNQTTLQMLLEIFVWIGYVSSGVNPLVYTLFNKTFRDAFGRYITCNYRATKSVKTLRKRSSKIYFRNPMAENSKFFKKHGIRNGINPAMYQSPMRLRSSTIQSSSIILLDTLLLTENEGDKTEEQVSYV

| Structure (SMILES) | AC50 [1] [µM] | AC50 [2] [µM] | AC50 [3] [µM] | AC50 [4] [µM] | AC50 [5] [µM] | AC50 (Progesterone receptor) [µM] | AC50 (Cannabinoid receptor 1) [µM] | AC50 (Histamine H2 receptor) [µM] | AC50 [6] [µM] | AC50 [7] [µM] |
| --- | --- | --- | --- | --- | --- | --- | --- | --- | --- | --- |
| O=C(/C=C/c1cccc(S(=O)(=O)Nc2ccccc2)c1)NO [BELINOSTAT] | > 10 | > 30 | > 10 | > 10 | > 30 | > 30 | – | – | – | – |
| CC(O)(CS(=O)(=O)c1ccc(F)cc1)C(=O)Nc1ccc(C#N)c(C(F)(F)F)c1 (centres undefined) [BICALUTAMIDE] | > 10 | > 30 | > 30 | > 10 | > 10 | 0.46 | > 30 | > 10 | > 10 | > 10 |
| O=C(O)COCCN1CCN(C(c2ccccc2)c2ccc(Cl)cc2)CC1 (centres undefined) [CETIRIZINE] | > 10 | > 30 | > 10 | > 10 | > 30 | > 30 | > 30 | – | > 10 | – |
